The source of these data is US12630550B2, “Pharmacophore for trail induction” (THE SCRIPPS RESEARCH INSTITUTE, priority 2014, dated 2026).

The experiment has as its system TRAIL mRNA expression. The following applies: RAW 264.7; doses as high as 10 μM or prolonged exposure.

Protocol: RAW 264.7 cells (ATCC TIB-71) were maintained in growth medium of Dulbecco's Modified Eagle's Medium (DMEM with 4.5 g/L glucose and pyruvate, Gibco BRL, Invitrogen Corp., USA) supplemented with L-glutamine, penicillin/streptomycin, non-essential amino acids (100× stocks, Invitrogen Corp.), 10 mM HEPES, pH 7.4 (1 M stock, Invitrogen), and 10% Fetal Bovine Serum (FBS, Hyclone); (V. V. Kravchenko, R. J. Ulevitch, G. F. Kaufmann, Methods Mol. Biol. 2011, 692, 133-145).
Cells were plated in 6-well plates (Corning Costar 3506) diluted 1:5 in 3 mL growth medium, media was changed after cells had adhered. After 12 h incubation, cells were treated with described concentration of compound in DMSO, and incubated in the presence of that compound or vehicle for the described amount of time. At this time, media was removed and cells were treated with TRIzol reagent (Life Technologies), and RNA extracted via included protocol. RNA concentration determined using a Hitachi U-2000 UV-Vis Spectrophotometer and samples diluted to 12 μg/5 μL in H2O. […]

For `Cc1ccccc1CN1C2=NCCN2C(=O)C2=C1CCN(Cc1ccccc1)C2` [Compound 1, 7-Benzyl-10-(2-methylbenzyl)-2,6,7,8,9,10-hexahydroimidazo[1,2-a]pyrido[4,3-d]pyrimidin-5(3H)-one, reference compound], the “change in TRAIL mRNA expression over controls” value is on record as “No change in TRAIL mRNA expression over controls”.
